Source: patent US20240226117A1, “TREATMENT OF CONGENITAL ADRENAL HYPOPLASIA” (ReveraGen BioPharma, Inc., priority 2021, published 2024)

Legend:
Assay type in all cases: in vivo, human
[1] = test system: DMD participants; assay: VBP15-003/VBP15-LTE motor outcomes over 18 months (TTSTAND, TTRW, TTCLIMB, 6MWT, NSAA); conditions: ANCOVA; for TTCLIMB velocity, LS mean difference (SE) / TTSTAND velocity, LS mean difference (SE): vamorolone 2.0 or 6.0 mg/kg/day 18 months versus corticosteroid-naïve DNHS
Method: Three consecutive clinical trials of vamorolone treatment of DMD were conducted by CINRG (VBP15-002 [NCT02760264]: VBP15-003 [NCT02760277]: VBP15-LTE [NCT03038399]). A total of 48 participants (ages 4 to <7 years) were initially enrolled into VBP15-002, with trial participants completing month 12 of the 24-month VBP15-LTE study.
The consecutive vamorolone trials (VBP15-002, VBP15-003, VBP15-LTE) were open-label with no placebo comparator. Corticosteroid-naïve and corticosteroid-treated DMD participant comparators were group-matched participants from the CINRG DNHS (NCT00468832). The CINRG DNHS was an observational, prospective case-control study of 551 participants (440 with DMD, 111 healthy peers). For group matching between vamorolone-treated participants and CINRG DNHS participants, prespecified criteria were defined for matching within the interim statistical analysis plan (iSAP). Age-matched CINRG DNHS participants included those continuously corticosteroid-naïve over an 18-month period (n=19) or continuously corticosteroid-treated over an 18-month period (n=68). For the 68 corticosteroid-treated participants, as this was an observational cohort, corticosteroid doses and regimens varied based on clinician discretion. Although all 68 participants were treated for 18 months continuously, the age at initiation of corticosteroids varied. Thus, the total duration of corticosteroid treatment was longer than 18 months for most participants.
Assessments of efficacy were motor outcomes (primary outcome: time to stand from supine [TTSTAND]: secondary outcomes: time to run/walk 10 meters [TTRW], time to climb four stairs [TTCLIMB], distance covered in 6-minute walk test [6MWT], and the North Star Ambulatory Assessment [NSAA]). 6MWT and NSAA were not assessed in most CINRG DNHS participants and were not compared to vamorolone-treated participants. According to standard operating procedures, clinical evaluators were trained to harmonize the CINRG vamorolone, CINRG DNHS, and CINRG prednisone studies. Reliability of these outcomes (percent coefficient of variation) has been reported for the VBP15-002/VBP15-003 studies. Assessments were done at baseline (VBP15-002 entry), 24 weeks (VBP15-003 last visit), and 18 months (VBP15-LTE midpoint assessment at 12 months).
Only participants completing VBP15-002 and VBP15-003 were eligible to enroll in VBP15-LTE. Participants received vamorolone at 1 of 4 dose levels (0.25, 0.75, 2.0, or 6.0 mg/kg/day) and at the same dose level in both the 4-week VBP15-002 trial and the 24-week VBP15-003 trial. If participants, their families, and their physicians wished to continue vamorolone treatment upon exiting the VBP15-003 trial, they were offered participation in the 24-month long-term extension (VBP15-LTE). The last visit of the VBP15-003 trial was commensurate with the first visit of the VBP15-LTE trial. In all studies, study medication was provided as 4% flavored liquid suspension and was dosed according to body weight and given once daily in the morning with food.
Vamorolone-treated participants were initially enrolled into VBP15-002 and VBP15-003 in 4 dose groups (0.25, 0.75, 2.0, and 6.0 mg/kg/day: groups A-D). Upon entering VBP15-LTE, vamorolone group A participants had 2 or 3 sequential dose escalations and were treated with 2.0 or 6.0 mg/kg/day for the last 3-9 months of the 18 months: group B participants had 1 or 2 dose escalations and were treated with 2.0 or 6.0 mg/kg/day for the last 9-11 months. Groups C and D were treated for 18 months at 2.0 or 6.0 mg/kg/day (S1 Fig).
The current study is the first to evaluate the longer-term tolerability, efficacy, and safety of vamorolone in DMD. […] Given the variable timing of dose escalations, it was prespecified that initial analyses of drug-related efficacy and safety would be limited to those participants who had 18 months of treatment with 2.0 mg/kg/day vamorolone or more (dose group C+dose group D: n=23). […]

[2] = test system: DMD participants; assay: Morning serum cortisol (adrenal suppression); conditions: 24-week trial
Method: Two tests for adrenal insufficiency were used: morning cortisol (before drug) and ACTH stimulation tests. Adrenal suppression was measured via morning serum cortisol levels at Baseline, 12-weeks, and 24-weeks. The ACTH stimulation test was measured at Baseline and 24-weeks. Morning cortisol was measured in the clinic before daily drug administration. Morning cortisol levels were similar at Baseline (˜200 nmol/L) in all groups and remained stable over the 24-week trial in the Placebo Group.

[3] = test system: ambulant boys with DMD; assay: VISION-DMD Phase 2b (VBP15-004) motor efficacy, 24-week double-blind period
[4] = test system: ambulant boys with DMD; assay: VBP15-004 growth (height Z score)
[5] = vamorolone 18 months versus corticosteroid-naïve participants

- adrenal suppression by morning cortisol, compared with prednisone ([2]; vamorolone 2.0 mg/kg/day, p=0.002): less adrenal suppression than prednisone
- change in height Z scores from baseline to Week 24 ([4]; vamorolone 2.0 mg/kg/day): overall stable height change Z scores
- change in height Z scores from baseline to Week 24 ([4]; vamorolone 6.0 mg/kg/day, p=0.02 versus prednisone): increased growth rate
SMILES: C[C@@H]1C[C@H]2[C@@H]3CCC4=CC(=O)C=C[C@]4(C)C3=CC[C@]2(C)[C@@]1(O)C(=O)CO [Vamorolone, 17α,21-dihydroxy-16α-methylpregna-1,4,9(11)-triene-3,20-dione]
- TTCLIMB velocity, LS mean difference (SE) [1]: 0.059 (0.026) event/second
- TTSTAND velocity, LS mean difference (SE) [1]: 0.042 (0.024) event/second
- TTCLIMB velocity, LS mean difference (SE) ([1]; listed as vamorolone): 0.059 event/second
- TTSTAND velocity, LS mean difference (SE) ([1]; listed as vamorolone): 0.042 event/second
- TTCLIMB in seconds units, LS mean difference [1, 5]: -0.34 s
- TTRW in seconds units, LS mean difference [1, 5]: -0.84 s
- adrenal suppression by morning cortisol, compared with prednisone ([2]; vamorolone 6.0 mg/kg/day): not significantly different from prednisone
- TTSTAND after 24 weeks ([3]; vamorolone 6 mg/kg/day group, from 6.0 seconds at baseline): 4.6 s
- TTSTAND velocity, 6MWT, TTRW endpoints compared with prednisone ([3]; vamorolone 6 mg/kg/day versus prednisone 0.75 mg/kg/day, 24 weeks): no statistically significant differences
- TTSTAND velocity, treatment difference versus placebo in change from baseline ([3]; vamorolone 6 mg/kg/day, 24 weeks, p=0.002): 0.06 rises/second
